Assay results published in US5834492A, “Water soluble orally effective iron chelator” (Jacobus Pharmaceutical Co., priority 1997, dated 1998).
In brackets after ≈: the same amount, converted by molar mass. Several values for one entry are separate records, joined by “and”; a condition that tells them apart may be missing. Identical values can stand only once. Entries after “also recorded” stand apart in the source; their conditions may differ. Counter-ions that a name gives are not always drawn. Like-named read-outs stand apart in the source and are kept apart here.

Experiments:
[1] = Solubility in ethanol or acetonitrile; assay type: physicochemical
Experimental: PIH has very limited solubility in water and ethanol, and in fact, to solubilize 28.6 grams of PIH would require 30,000 cc of absolute ethanol. Nevertheless, the aforesaid molar concentrations were used to produce a suspension to which was added the ethereal HCI solution.
As a result of applicant's work, this procedure raises even more questions of operability than the immediately preceding one, since the acetonitrile solubility of the precipitate obtained after treatment of an authentic sample of PIH with ethereal HCI, is virtually nil. Specifically, attempts to solubilize the product succeeded in dissolving only 40 ma of material per 500 cc of hot acetonitrile--a ratio of 1 gram per 12.5 liters of acetonitrile (a ratio of […]) and no precipitate was obtained after addition of dry ether--even upon cooling the solution. Applicants were unable to liberate any product from the recrystallization system disclosed in U.S. 2,810,725.
This cannot be accomplished since the solubility of PIH in ethanol is approximately 1 mg/mL and would require a volume of 30,000 cc for dissolution as described and not 500 cc.
There was utilized a suspension of 57.2 mg/cc (1.43 g, 5 mMol in 25 cc absolute ethanol) to which were added two equivalents (10 mmoles) of 4 N ethereal HCI (2.5 cc) and stirred for one hour. The light yellow starting material became a copious off-white suspension. This was filtered and dried to give 1.68 g of a solid with melting point 250°-252°C. (dec) with discoloration beginning at 240° C. An authentic sample of PIH dihydrochloride, synthesized according to Example 1 supra, melts at 255°-257° C.

[2] = Water / aqueous solubility at 25 °C; assay type: physicochemical
[3] = Stability/degradation in aqueous medium of given pH; assay type: physicochemical; conditions: for degraded at 3 h: aqueous medium, read-out: degradation after three hours
[4] = Stability of the solid to light and anhydrous heat; assay type: physicochemical
[5] = Iron complexation (chelation); conditions: aqueous solutions in vitro and in vivo
[6] = Biliary iron excretion in iron-overloaded rats after gavage, bile duct cannulated; assay type: in vivo, Male Sprague-Dawley rats; conditions: gavage 100 mg/kg, versus PIH equivalent dosage
Experimental: Measurement of the bioefficiency of iron chelators have been carried out in rats using the methods of Brittenham supra and Park et al,(C. Park, B. R. Bacon, G. M. Brittenham and N. Tas. Lab Invest. 57:555-63 (1987).
Male Sprague-Dawley rats weighing approximately 200 g were housed in cages and randomly assigned to three groups containing at least 6 animals. The groups received (i) one ml of saline alone administered by gavage (ii) 1 mL saline with PIH as the free base, 100 mg/kg body weight, added just prior to administration by gavage and (iii) 1 mL saline with PIHDH, 100 mg/kg body weight, added just prior to administration by gavage. The doses of chelators tested are chosen to provide direct comparisons with previous assay data. Animals receiving the chelators or saline by gavage receive doses 45 minutes prior to surgery. Animals are placed under anesthesia and the bile duct cannulated to permit continuous collection of bile during the assay time period. The bile is collected at half-hour intervals for 5 or 6 hours and the iron content determined spectrophotometrically, using bathophen-anthroline sulfonate for color development as published by Pippard et al, (M. J. Pippard, D. K. Johnson and C. A. Finch. Blood. 58:685-92 (1981)). […]

[7] = Total daily iron excretion in iron overloaded patients (enteric granules or glycine-buffered capsules); conditions: patients with iron overload
Experimental: Five human subjects were administered PIHDH (PIH(HCI)2) as either enteric coated granules at 546 mg three times daily representing the lowest dose tested at 20 mg/kg per day.

[8] = Human studies of oral PIH: iron excretion, toxicity, palatability; assay type: in vivo; conditions: in the mouth
Description: There has, heretofore been no convenient, safe and effective orally administered chelator that has been developed for clinical use.

[9] = noted by Sah 1953; cited from earlier work
[10] = below pH 3; chromatographic investigations; cited from earlier work
[11] = continuous infusion in solution; rats; cited from earlier work
[12] = cited from earlier work
[13] = cited from earlier work; remark: listed apart in the source
[14] = water, 25 °C (FIG. 16), read-out: water solubility

**Q.** For `Cc1ncc(CO)c(C=NNC(=O)c2ccncc2)c1O` [product], which “solubility in acetonitrile, in words” value ([1]; acetonitrile) is on record?
**A.** The value was “virtually nil”.

**Q.** What about the “solubility of product in acetonitrile” value ([1]; acetonitrile) of the same compound?
**A.** Its value is “less than 0.1 mg/mL”.

**Q.** And the “amount of material dissolved per 500 cc hot acetonitrile” value ([1]; per 500 cc hot acetonitrile)?
**A.** Its value is 40 ma.

**Q.** Which results are given for `Cc1ncc(CO)c(C=NNC(=O)c2ccncc2)c1O` [PIHDH, 3-hydroxy-5-(hydroxy-methyl)-2-methyl-4-pyridinecarboxaldehyde-4' pyridinecarboxylic acid hydrazone dihydrochloride]?
**A.** water solubility relative to PIH (times more water soluble) ([2]; PIHDH versus PIH base, dihydrochloride): 450 times and > 450 times; solubility [2, 14]: 63 mg/mL; water solubility, in words ([2]; water, dihydrochloride): better water solubility than the free base and its related hydrated species; degraded at 3 h ([3]; pH 1.29, 3 h): 44.1%; degraded at 3 h ([3]; pH 2.78, 3 h): 17.7%; decomposition when buffered ([3]; buffered above 3.0 to 7.0): virtually little to virtually no decomposition; degradation after three hours ([3]; pH 6.8, 3 h): no degradation; stability of crystals [4]: stable to light and anhydrous heat; ability to complex iron [5]: preserves its ability to complex iron in aqueous solutions in vitro and in vivo; total biliary iron excretion relative to PIH (percent) [6]: 250%; total biliary iron excretion relative to PIH (times greater) [6]: 2.5 times; absorption of enteric granules or buffered capsules [7]: adequately absorbed

**Q.** Which results are given for `Cc1ncc(CO)c(C=NNC(=O)c2ccncc2)c1O` [Pyridoxal isonicotinoyl hydrazone isethionate]?
**A.** solubility ([2]; 0.1 n hcl, read-out: solubility in 0.1N HCl): 36 mg/mL; solubility ([2]; water, read-out: water solubility): 2.7 mg/mL

**Q.** With `Cc1ncc(CO)c(/C=N/NC(=O)c2ccncc2)c1O` [PIH, 3-hydroxy-5-hydroxy-methyl-2-methyl-4-pyridinylcarboxaldehyde 4' pyridinecarboxylic acid hydrazone] as the compound, how does the water solubility ([2]; water, 25 °C (FIG. 16)) read?
**A.** Its water solubility is 0.14 mg/mL (≈ 489 µM).

**Q.** What about the solubility [2, 14] of the same compound?
**A.** Its solubility is 0.14 mg/mL (≈ 489 µM).

**Q.** And the “volume of absolute ethanol required to dissolve 28.6 g PIH” value ([1]; absolute ethanol)?
**A.** Its value is 30,000 cc and 30.000 cc.

**Q.** What about the solubility in ethanol ([1]; ethanol) of the same compound?
**A.** The solubility in ethanol was “approximately 1 mg/mL”.

**Q.** What about the taste [8] of the same compound?
**A.** Its taste is “unpleasant taste”.

**Q.** And the “water solubility, in words (literature)” value [9]?
**A.** The value was “very low water solubility”.

**Q.** And the “instability under acidic conditions” value [10]?
**A.** The value was “dissolution below pH 3 can lead to decomposition”.

**Q.** And the “iron excretion compared to desferrioxamine” value [11]?
**A.** The value was “quantitatively similar iron excretion”.

**Q.** What about the “iron excretion compared with subcutaneously injected desferrioxamine” value ([12]; oral PIH at three times the molar rates, preliminary human studies) of the same compound?
**A.** Its value is “less than half of that expected with subcutaneously injected desferrioxamine”.

**Q.** What about the “toxicity at doses needed for sufficient iron excretion” value ([12]; oral capsule, >60 mg/kg, people) of the same compound?
**A.** Its value is “toxicity characterized by elevated hepatic enzymes”.

**Q.** What about the “oral dose needed to elicit sufficient iron excretion” value ([12]; oral capsule, people) of the same compound?
**A.** Its value is > 60 mg/kg.

**Q.** What about the “oral efficacy / iron removal in humans” value ([12]; oral, humans) of the same compound?
**A.** Its value is “poor oral efficacy; also recorded: inadequate levels of iron are removed in humans”.

**Q.** What about the palatability ([12]; oral, phase I clinical trials) of the same compound?
**A.** Its palatability is “highly unpalatable with a lingering unpleasant taste and oral sensation”.

**Q.** What about the “absorption after oral administration” value [13] of the same compound?
**A.** Its value is “not fully absorbed in vivo after oral administration”.

**Q.** And the “PIH crystals in feces” value ([13]; treated animals/subjects, oral)?
**A.** The value was “presence of PIH crystals in the feces of treated animals; also recorded: crystals actually visible in feces of treated subjects”.

**Q.** Which results are given for `Cc1ncc(CO)c(C=NNC(=O)c2ccncc2)c1O` [hydrochloride-1.5 hydrate of PIH, 3-hydroxy-5-(hydroxymethyl) -2-methyl-4-pyridinecarboxaldehyde-4' pyridin ecar-boxylic acid hydrazone monohydrochloride trihemihydrate]?
**A.** water solubility ([2]; water, 25 °C (FIG. 16)): 34 mg/mL; water solubility, in words ([2]; water, listed as monohydrochloride 1.5 hydrate): slower solubilization
